Measured values reported in patent US9359650B2, “Biomass pre-treatment for co-production of high-concentration C5- and C6-carbohydrates and their derivatives” (Wisconsin Alumni Research Foundation, priority 2013, dated 2016).

Tests used:
[1] = tested on: S. cerevisiae PE2; test: S. cerevisiae salt and GVL toxicity testing (growth, OD600); format: cell-based; details: S. cerevisiae PE2, optical density after 40 hr of growth, 30° C., Yeast Nitrogen Base, 0.5% glucose plus wt % GVL or NaCl; FIGS. 22A/22B
Experimental: The strain used in these experiments was S. cerevisiae PE2 and in all cases was grown at 30° C. The toxicity medium used was formulated using 10x Yeast Nitrogen Base without Amino Acids, 0.5% glucose and the appropriate wt % of GVL or sodium chloride (Sigma). A single colony of S. cerevisiae was picked from YPD agar and grown overnight in 5 ml of YPD media (glass culture tubes, 20×150 mm, Fisher Scientific) agitated at 250 rpm in the incubator shaker. The resulting solution was used to inoculate 2 ml of the toxicity medium to an OD600 of 0.01 in 13×100 mm tubes (Fisher Scientific). The tubes were incubated for 40 hours under same conditions and sampled as described above.

[2] = tested on: E. coli MG1655; test: E. coli salt and GVL toxicity testing (growth, OD600); format: cell-based; details: E. coli MG1655, optical density after 24 hr of growth, 37° C., MOPS minimal media with 0.5% glucose plus wt % GVL or NaCl; FIGS. 22A/22B
Experimental: The strain used in these experiments was wild type E. coli MG1655 and in all cases was grown at 37° C. The toxicity medium used was based on MOPS minimal media with 0.5% glucose and supplemented with the appropriate wt % of GVL or sodium chloride (Sigma). A single colony of E. coli was picked from LB agar and grown overnight in 5 ml of LB media (glass culture tubes, 20×150 mm, Fisher Scientific) agitated at 250 rpm in an incubator shaker (New Brunswick Scientific). The resulting solution was used to inoculate 2 ml of the toxicity medium to an OD600 of 0.01 in 13×100 mm tubes (Fisher Scientific). The tubes were incubated for 24 hours under the same conditions as described in the main methods and a final OD600 measured using a Biomate 3 spectrophotometer (ThermoFisher).

| Structure (SMILES) | effect of concentration on microbial growth (optical density) [1] | effect of concentration on microbial growth (optical density) [2] |
| --- | --- | --- |
| [Cl-].[Na+] [NaCl, sodium chloride] | can inhibit microbial growth | can inhibit microbial growth |
| CC1CCC(=O)O1 (stereo not shown) [GVL, gamma-valerolactone] | can inhibit microbial growth | can inhibit microbial growth |
